Results from US4160829A, “Antibacterial 1,2,4-oxadiazolylacetamido cephalosporins” (Gist-Brocades N.V., priority 1972, dated 1979).

Legend:
Past.multo. A 723 = test: agar serial dilution test; type: cell-based, Pasteurella multocida; settings: Pasteurella multocida; agar serial dilution, 24 hours, 37° C.; read-out: minimal inhibitory concentration (MIC)
Prot.mirab. A 1200 = test: micro serial dilution test; type: cell-based; settings: Proteus mirabilis; micro serial dilution (in brackets), about 18 hours, 30° C. or 37° C.; read-out: minimal inhibitory concentration (MIC)
Staph.aureus A 355 = test: micro serial dilution test; type: cell-based, Staphylococcus aureus; settings: Staphylococcus aureus, A355; micro serial dilution (in brackets), about 18 hours, 30° C. or 37° C.; penicillinase-producing strain; read-out: minimal inhibitory concentration (MIC)
Staph.aureus A 2001 = test: agar serial dilution test; type: cell-based, Staphylococcus aureus; settings: Staphylococcus aureus, A2001, 24 h, agar serial dilution, 24 hours, 37° C.; read-out: minimal inhibitory concentration (MIC)
Kleb.pneum. A 809 = test: agar serial dilution test; type: cell-based, Klebsiella pneumoniae; settings: Klebsiella pneumoniae; agar serial dilution, 24 hours, 37° C.; read-out: minimal inhibitory concentration (MIC)
[1] = system: Pseud.aerug. Wyeth A 1058; test: agar serial dilution test; type: cell-based; settings: agar serial dilution, 24 hours, 37° C.; read-out: minimal inhibitory concentration (MIC)
Haem.Suis A 2096 = test: micro serial dilution test; type: cell-based; settings: micro serial dilution (in brackets), about 18 hours, 30° C. or 37° C.; read-out: minimal inhibitory concentration (MIC)

SMILES: Cc1noc(CC(=O)N[C@@H]2C(=O)N3C(C(=O)O)=C(CSc4nnnn4C)CS[C@H]23)n1 [Compound G, sodium-7[(3-methyl-1,2,4-oxadiazol-5-yl)-acetamido] 3 [1-methyl-tetrazol-5-yl-mercaptomethyl] 3-cephem-4-carboxylate]
- MIC (Past.multo. A 723): 1 µg/mL
- MIC (Prot.mirab. A 1200): 15 µg/mL
- MIC (Staph.aureus A 355): 0.9 µg/mL
- MIC (Staph.aureus A 2001): 0.5 µg/mL
- MIC (Kleb.pneum. A 809): 0.5 µg/mL
- MIC [1]: 100 µg/mL
- MIC (Haem.Suis A 2096): 0.23 µg/mL
